Counter-ions that a name gives are not always drawn.
Each molecule was assayed against T1, human full length HSD11 β 1 (Homo sapiens, UniProt P28845) (assay: In Vitro HSD11β1 Inhibition Assay). Settings: CHO cells transiently expressing human HSD11β1; 200 nM cortisone+500 uM NADPH overnight; cortisone to cortisol by LC/MS-MS; read-out: 11βHSD1 (IC50).
T1 construct: transient expression of human full length HSD11 β 1 expression vector; host or cells: CHO cells (transient transfection)
Format: cell-based
Procedure: In Vitro HSD11β1 Inhibition Assay:
CHO cells were maintained in Dulbecco's modified Eagle's medium/nutrient mixture F-12 containing 5% fetal bovine serum (v/v) and 2 mM glutamine. Cells were cultured at 37° C. with 5% CO2. For transient expression of human full length HSD11 β 1 expression vector (OriGene Technologies), cells were seeded at a density of 2×10^5 cells/well in a 6-well plate. Transfection was done using Turbofectin8 reagent (OriGene Technologies), according to the protocol provided with the reagent. After 24 hours post-transfection, cells were trypsinized and pooled together before they were re-seeding to 96-well plate at a density of 40000 cells/well. 24 hours after re-seeding, cells were incubated with 200 nM cortisone+500 uM NADPH (or along with small molecule inhibitors) overnight. The enzymatic activity or inhibition of enzyme activity was measured by estimating the conversion of cortisone to cortisol by LC/MS-MS method. The IC50 in nM was calculated from an 8 point log scale of concentration versus inhibition.

T1 sequence (P28845 whole entry): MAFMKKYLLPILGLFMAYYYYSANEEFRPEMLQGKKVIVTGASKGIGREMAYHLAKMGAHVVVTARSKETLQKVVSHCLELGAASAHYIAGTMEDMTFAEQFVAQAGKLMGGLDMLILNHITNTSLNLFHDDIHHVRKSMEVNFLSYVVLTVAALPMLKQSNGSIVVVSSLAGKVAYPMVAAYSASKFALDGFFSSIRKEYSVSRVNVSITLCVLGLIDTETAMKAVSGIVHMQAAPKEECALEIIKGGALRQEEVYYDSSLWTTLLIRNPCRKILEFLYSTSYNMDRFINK

Compound | IC50
Cc1[nH]c2ccc(F)cc2c1CCC(=O)N1CCCC2CCCCC21 (centres unmarked) [Compound 16, 3-(5-fluoro-2-methyl-1H-indol-3-yl)-1-(octahydroquinolin-1(2H)-yl)propan-1-one] | 150 to 200 nM
CC(CC(=O)N1CCC(O)C2CCCCC21)c1c[nH]c2ccccc12 (centres unmarked) [Example 106, 1-(4-hydroxyoctahydroquinolin-1(2H)-yl)-3-(1H-indol-3-yl)butan-1-one] | > 250 nM
CC(CC(=O)N1CCCC2C(C(=O)O)CCCC21)c1c[nH]c2nccc(C3CC3)c12 (centres unmarked) [Compound 205, 1-[3-(4-cyclopropyl-1H-pyrrolo[2,3-b]pyridin-3-yl)butanoyl]decahydroquinoline-5-carboxylic acid] | > 250 nM
Cc1cccc2c1c(CCC(=O)N1CC(C)OC3CCCCC31)cn2C (centres unmarked) [Compound 69, 3-(1,4-dimethyl-1H-indol-3-yl)-1-(2-methyloctahydro-4H-1,4-benzoxazin-4-yl)propan-1-one] | > 250 nM
CC(CC(=O)N1CCO[C@H]2CCCCC21)c1c[nH]c2cccc(F)c12 (single isomer, unassigned) [Example 139, 3-(4-fluoro-1H-indol-3-yl)-1-[cis-(4a,8a)-octahydro-4H-1,4-benzoxazin-4-yl]butan-1-one] | 100 to 150 nM
CC(CC(=O)N1CCCC2CCCCC21)c1c[nH]c2cccc(F)c12 (single isomer, unassigned) [Example 122, 3-(4-fluoro-1H-indol-3-yl)-1-(octahydroquinolin-1(2H)-yl)butan-1-one] | < 100 nM
CC(=O)NC(Cc1c[nH]c2ccccc12)C(=O)N1CCCC2CCCCC21 (centres unmarked) [Example 96, N-[3-(1H-indol-3-yl)-1-(octahydroquinolin-1(2H)-yl)-1-oxopropan-2-yl]acetamide] | > 250 nM
Cn1nc(CCC(=O)N2CCCC3C(C(=O)O)CCCC32)c2c(C3CC3)cccc21 (centres unmarked) [Compound 268, 1-(3-(4-cyclopropyl-1-methyl-1H-indazol-3-yl)propanoyl) decahydroquinoline-5-carboxylic acid] | > 250 nM
CC(CC(=O)N1C(C)CCC2C(C(=O)O)CCCC21)c1c[nH]c2cccc(-c3ccco3)c12 (centres unmarked) [Compound 231, 1-{3-[4-(furan-2-yl)-1H-indol-3-yl]butanoyl}-2-methyldecahydroquinoline-5-carboxylic acid] | 150 to 200 nM
Cc1ccnc2[nH]cc(C(CC(=O)N3CCC(C(=O)O)C4CCCCC43)C(C)C)c12 (centres unmarked) [Example 180, 1-[4-methyl-3-(4-methyl-1H-pyrrolo[2,3-b]pyridin-3-yl)pentanoyl]decahydroquinoline-4-carboxylic acid] | > 250 nM
CC(C)c1cccc2[nH]cc(C(C)CC(=O)N3CCCC4C(C(=O)O)CCCC43)c12 (centres unmarked) [Compound 211, 1-{3-[4-(propan-2-yl)-1H-indol-3-yl]butanoyl}decahydroquinoline-5-carboxylic acid] | < 100 nM
CC(CC(=O)N1CCCC2C(C(=O)O)CCCC21)c1c[nH]c2cccc(-c3ccc(F)o3)c12 (single isomer, unassigned) [Compound 251, 1-{3-[4-(5-fluorofuran-2-yl)-1H-indol-3-yl]butanoyl}decahydroquinoline-5-carboxylic acid] | < 100 nM
CC(C)(Sc1nc2ccccc2s1)C(=O)N1CCCC2CCCCC21 (centres unmarked) [Example 74, 2-(1,3-benzothiazol-2-ylsulfanyl)-2-methyl-1-(octahydroquinolin-1(2H)-yl)propan-1-one] | > 250 nM
O=C(CCc1nc2ccccc2s1)N1CCOC2CCCCC21 (centres unmarked) [Example 80, 3-(1,3-benzothiazol-2-yl)-1-(octahydro-4H-1,4-benzoxazin-4-yl)propan-1-one] | > 250 nM
CC(CC(=O)N1CCCC2C1CCCC2(C)C(=O)O)c1c[nH]c2cccc(C3CC3)c12 (centres unmarked) [Compound 237, 1-[3-(4-cyclopropyl-1H-indol-3-yl)butanoyl]-5-methyldecahydroquinoline-5-carboxylic acid] | 150 to 200 nM
O=C(CCn1ccc2ccccc21)N1CCCC2CCCCC21 (centres unmarked) [Compound 18, 3-(1H-indol-1-yl)-1-(octahydroquinolin-1(2H)-yl)propan-1-one] | > 250 nM
CC(CC(=O)N1CCCC2C(C(=O)O)CCCC21)c1c[nH]c2cccc(-c3ccc(F)o3)c12 (single isomer, unassigned) [Compound 248, 1-{3-[4-(5-fluorofuran-2-yl)-1H-indol-3-yl]butanoyl}decahydroquinoline-5-carboxylic acid] | < 100 nM
Cn1cc(CCC(=O)N2CCCC3CCCCC32)c2c(F)cccc21 (centres unmarked) [Compound 47, 3-(4-fluoro-1-methyl-1H-Indol-3-yl)-1-(octahydroquinolin-1(2H)-yl)propan-1-one] | < 100 nM
CC(CC(=O)N1CCCC2CCCCC21)c1c[nH]c2cccc(F)c12 (single isomer, unassigned) [Example 123, 3-(4-fluoro-1H-indol-3-yl)-1-(octahydroquinolin-1(2H)-yl)butan-1-one] | < 100 nM
CC12CCCCC1N(C(=O)CCc1c[nH]c3ccccc13)CCC2 (single isomer, unassigned) [Compound 56, 3-(1H-indol-3-yl)-1-(4a-methyloctahydroquinolin-1(2H)-yl)propan-1-one] | 150 to 200 nM
CC(CC(=O)N1CCCC2CC(C(=O)O)CCC21)c1c[nH]c2cccc(C3CC3)c12 (centres unmarked) [Compound 217, 1-[3-(4-cyclopropyl-1H-indol-3-yl)butanoyl]decahydroquinoline-6-carboxylic acid] | 100 to 150 nM
CC(CC(=O)N1CCC(CC(=O)O)C2CCCCC21)c1c[nH]c2cccc(C3CC3)c12 (centres unmarked) [Compound 189, (1-[3-(4-cyclopropyl-1H-indol-3-yl)butanoyl]decahydroquinolin-4-yl)acetic acid] | > 250 nM
CC(CC(=O)N1CCC(C(=O)O)C2CCCCC21)c1c[nH]c2cccc(-c3ccco3)c12 (centres unmarked) [Compound 227, 1-{3-[4-(furan-2-yl)-1H-indol-3-yl]butanoyl}decahydroquinoline-4-carboxylic acid] | > 250 nM
CC(C)C(CC(=O)N1CCC(C(=O)O)C2CCCCC21)c1c[nH]c2ccccc12 (centres unmarked) [Example 105, 1-[3-(1H-indol-3-yl)-4-methylpentanoyl]decahydroquinoline-4-carboxylic acid] | > 250 nM
CC(C)C(CC(=O)N1CCOC2CCCCC21)c1c[nH]c2ccccc12 (centres unmarked) [Example 133, 3-(1H-indol-3-yl)-4-methyl-1-(octahydro-4H-1,4-benzoxazin-4-yl)pentan-1-one] | > 250 nM
CC(C)C(CC(=O)N1CCC(C(=O)O)C2CCCCC21)c1c[nH]c2ccccc12 (centres unmarked) [Example 107, 1-[3-(1H-indol-3-yl)-4-methylpentanoyl]decahydroquinoline-4-carboxylic acid sodium salt] | > 250 nM
O=C(CCc1c[nH]c2ccccc12)N1CCCC2CCCCC21 (single isomer, unassigned) [Compound 53, 3-(1H-indol-3-yl)-1-(octahydroquinolin-1(2H)-yl)propan-1-one] | < 100 nM
CC(CC(=O)N1CCCC2(C(=O)O)CCCCC12)c1c[nH]c2cccc(Cl)c12 (centres unmarked) [Example 129, 1-[3-(4-chloro-1H-indol-3-yl)butanoyl]octahydroquinoline-4a(2H)-carboxylic acid] | > 250 nM
CC(CC(=O)N1CCCC2C(C(=O)O)CCCC21)c1cn(C2CC2)c2cccc(Cl)c12 (centres unmarked) [Compound 261, 1-[3-(4-chloro-1-cyclopropyl-1H-indol-3-yl)butanoyl]decahydroquinoline-5-carboxylic acid] | 200 to 250 nM

Reference: US9453014B2, “Cyclic amide derivatives as inhibitors of 11-β-hydroxysteroid dehydrogenase and uses thereof” (CONNEXIOS LIFE SCIENCES PVT. LTD., priority 2011, dated 2016)
